Values joined by “and” are separate entries in the source; they are usually repeats but may differ in a detail not shown here. Equal entries are not always repeated. Toxic doses and inconclusive results are not listed.
System: AKR/Lw mice, AKR lymphoma ip, median survival T/C
Assay: NCI In Vivo Anticancer Drug Screen. Data for tumor model Lymphoma AKR (Transplanted) (intraperitoneal) in AKR/Lw mice
Details: endpoint: median survival time, higher = longer survival
Description: The antitumor activity of compounds was measured in mice bearing transplantable tumors. Survival or tumor size were measured and the results are expressed as the measurement made in the treated group (T) divided by the measurement made in the vehicle treated control group (C). The tumor model used in this assay is Lymphoma AKR (Transplanted) (intraperitoneal) in AKR/Lw mice

[1] = dose: 25.0 mg/kg/injection, schedule: Q04DX003 (ip), vehicle: Klucel (hydroxypropylcellulose) (HPC)
[2] = dose: 50.0 mg/kg/injection, schedule: Q04DX003 (ip), vehicle: Klucel (hydroxypropylcellulose) (HPC)

Structure (SMILES): CCn1c(O)c(C=N)c(=O)n(CC)c1=O
- T/C (dose: 12.0 mg/kg/injection, schedule: Q01DX001 (ip), vehicle: saline): 97 % of control
- T/C (dose: 12.5 mg/kg/injection, schedule: Q04DX003 (ip), vehicle: Klucel (hydroxypropylcellulose) (HPC)): 100 % of control
- T/C (dose: 25.0 mg/kg/injection, schedule: Q01DX001 (ip), vehicle: saline): 111 % of control
- T/C [1]: 93 % of control
- T/C (dose: 50.0 mg/kg/injection, schedule: Q01DX001 (ip), vehicle: saline): 94 % of control
- T/C [2]: 97 % of control

Structure (SMILES): CN(C)/N=N/c1nc[nH]c1C(N)=O
- T/C (dose: 12.5 mg/kg/injection, schedule: Q01DX009 (ip), vehicle: saline): 120 % of control
- T/C (dose: 25.0 mg/kg/injection, schedule: Q01DX009 (ip), vehicle: saline with Tween-80): 111 % of control
- T/C (dose: 25.0 mg/kg/injection, schedule: Q01DX009 (ip), vehicle: saline): 106 % of control and 123 % of control
- T/C [1]: 102 % of control
- T/C (dose: 37.5 mg/kg/injection, schedule: Q04DX003 (ip), vehicle: Klucel (hydroxypropylcellulose) (HPC)): 116 % of control
- T/C (dose: 50.0 mg/kg/injection, schedule: Q01DX001 (ip), vehicle: Klucel (hydroxypropylcellulose) (HPC)): 102 % of control
- T/C (dose: 50.0 mg/kg/injection, schedule: Q01DX005 (ip), vehicle: water): 116 % of control
- T/C (dose: 50.0 mg/kg/injection, schedule: Q01DX009 (ip), vehicle: saline with Tween-80): 111 % of control
- T/C [2]: 105 % of control
- T/C (dose: 75.0 mg/kg/injection, schedule: Q04DX003 (ip), vehicle: Klucel (hydroxypropylcellulose) (HPC)): 102 % of control
- T/C (dose: 90.0 mg/kg/injection, schedule: Q01DX005 (ip), vehicle: Klucel (hydroxypropylcellulose) (HPC)): 158 % of control
- T/C (dose: 100.0 mg/kg/injection, schedule: Q01DX001 (ip), vehicle: Klucel (hydroxypropylcellulose) (HPC)): 90 % of control and 113 % of control
- T/C (dose: 100.0 mg/kg/injection, schedule: Q01DX001 (ip), vehicle: saline): 105 % of control and 107 % of control
- T/C (dose: 100.0 mg/kg/injection, schedule: Q01DX005 (ip), vehicle: water): 120 % of control
- T/C (dose: 100.0 mg/kg/injection, schedule: Q01DX009 (ip), vehicle: Klucel (hydroxypropylcellulose) (HPC)): 100 % of control and 123 % of control
- T/C (dose: 100.0 mg/kg/injection, schedule: Q01DX009 (ip), vehicle: saline with Tween-80): 111 % of control
- T/C (dose: 100.0 mg/kg/injection, schedule: Q04DX003 (ip), vehicle: Klucel (hydroxypropylcellulose) (HPC)): 87 % of control
- T/C (dose: 135.0 mg/kg/injection, schedule: Q01DX005 (ip), vehicle: Klucel (hydroxypropylcellulose) (HPC)): 186 % of control and 188 % of control
- T/C (dose: 150.0 mg/kg/injection, schedule: Q01DX009 (ip), vehicle: saline): 111 % of control
- T/C (dose: 200.0 mg/kg/injection, schedule: Q01DX001 (ip), vehicle: Klucel (hydroxypropylcellulose) (HPC)): 123 % of control
- T/C (dose: 200.0 mg/kg/injection, schedule: Q01DX001 (ip), vehicle: saline): 107 % of control (2×) and 113 % of control
- T/C (dose: 200.0 mg/kg/injection, schedule: Q01DX005 (ip), vehicle: Klucel (hydroxypropylcellulose) (HPC)): 97 % of control
- T/C (dose: 200.0 mg/kg/injection, schedule: Q01DX005 (ip), vehicle: water): 114 % of control
- T/C (dose: 200.0 mg/kg/injection, schedule: Q01DX009 (ip), vehicle: Klucel (hydroxypropylcellulose) (HPC)): 100 % of control and 123 % of control
- T/C (dose: 200.0 mg/kg/injection, schedule: Q01DX009 (ip), vehicle: saline with Tween-80): 117 % of control
- T/C (dose: 200.0 mg/kg/injection, schedule: Q04DX003 (ip), vehicle: Klucel (hydroxypropylcellulose) (HPC)): 100 % of control and 121 % of control and 122 % of control
- T/C (dose: 250.0 mg/kg/injection, schedule: Q04DX003 (ip), vehicle: Klucel (hydroxypropylcellulose) (HPC)): 111 % of control
- T/C (dose: 300.0 mg/kg/injection, schedule: Q01DX001 (ip), vehicle: Klucel (hydroxypropylcellulose) (HPC)): 120 % of control and 123 % of control
- T/C (dose: 350.0 mg/kg/injection, schedule: Q04DX003 (ip), vehicle: Klucel (hydroxypropylcellulose) (HPC)): 163 % of control
- T/C (dose: 500.0 mg/kg/injection, schedule: Q01DX001 (ip), vehicle: Klucel (hydroxypropylcellulose) (HPC)): 107 % of control and 111 % of control
- T/C (dose: 600.0 mg/kg/injection, schedule: Q01DX001 (ip), vehicle: Klucel (hydroxypropylcellulose) (HPC)): 110 % of control and 111 % of control
- T/C (dose: 600.0 mg/kg/injection, schedule: Q01DX009 (ip), vehicle: Klucel (hydroxypropylcellulose) (HPC)): 102 % of control

Structure (SMILES): Nc1ccccc1SC1CC(=O)N(c2ccccc2)C1=O (stereo not drawn)
- T/C (dose: 100.0 mg/kg/injection, schedule: Q01DX001 (ip), vehicle: saline with Tween-80): 94 % of control
- T/C (dose: 200.0 mg/kg/injection, schedule: Q01DX001 (ip), vehicle: saline with Tween-80): 94 % of control
- T/C (dose: 400.0 mg/kg/injection, schedule: Q01DX001 (ip), vehicle: saline with Tween-80): 94 % of control

Structure (SMILES): COc1cc([C@@H]2c3cc4c(cc3[C@H](O)[C@H]3COC(=O)[C@@H]23)OCO4)cc(OC)c1OC
- T/C (dose: 6.0 mg/kg/injection, schedule: Q01DX009 (ip), vehicle: Klucel (hydroxypropylcellulose) (HPC)): 110 % of control
- T/C (dose: 12.0 mg/kg/injection, schedule: Q01DX009 (ip), vehicle: Klucel (hydroxypropylcellulose) (HPC)): 120 % of control

Reference: PubChem BioAssay AID190 (DTP/NCI, 2004)
